Experimental data taken from patent US12599672B2, “KRAS proteolysis targeting chimeras” (PAQ Therapeutics Inc., priority 2023, dated 2026).

Tests used:
Type in all cases: cell-based
KRAS G12D = molecular target: T1, KRAS G12D (Homo sapiens, UniProt P01116, G12D); test: KRAS G12D HiBit assay; settings: AsPc-1-KRAS (G12D)-HiBit-KI cell, compound treatment for 24 hours, absolute DC50
T1 construct: AsPc-1-KRAS (G12D)-HiBit-KI cell (Pharmaron); host or cells: AsPc-1-KRAS (G12D)-HiBit-KI cells (HiBiT knock-in at the endogenous KRAS locus)
T1 sequence (P01116 1-188 isoform P01116-2 G12D): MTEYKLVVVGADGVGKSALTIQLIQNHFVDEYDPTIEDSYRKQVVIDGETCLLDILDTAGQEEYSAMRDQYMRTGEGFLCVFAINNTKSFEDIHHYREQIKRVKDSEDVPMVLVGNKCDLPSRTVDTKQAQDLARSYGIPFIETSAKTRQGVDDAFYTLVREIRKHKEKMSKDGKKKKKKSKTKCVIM
Outline: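 Cells were treated for 24 h with compounds in a 3-fold, 10-point dilution series from a 0.3 mM DMSO stock, then equilibrated 15 min at room temperature. KRAS G12D HiBiT levels were read by luminescence after lytic Nano-Glo HiBiT reagent with LgBiT; inhibition calculated relative to 0.1% DMSO high control.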

KRAS G12V = molecular target: T2, KRAS G12V (Homo sapiens, UniProt P01116, G12V); test: KRAS G12V HiBit assay; settings: SW620-KRAS (G12V)-HiBit-KI cells, compound treatment for 24 hours, class symbols
T2 construct: SW620-KRAS (G12V)-HiBit-KI cell (Pharmaron); host or cells: SW620-KRAS (G12V)-HiBit-KI cells (HiBiT knock-in at the endogenous KRAS locus)
T2 sequence (P01116 1-188 isoform P01116-2 G12V): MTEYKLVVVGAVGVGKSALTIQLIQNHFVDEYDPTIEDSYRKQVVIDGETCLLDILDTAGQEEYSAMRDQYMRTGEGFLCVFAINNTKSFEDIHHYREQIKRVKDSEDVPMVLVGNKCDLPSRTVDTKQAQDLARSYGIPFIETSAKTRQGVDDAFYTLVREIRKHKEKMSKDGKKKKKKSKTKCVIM
Outline: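 HiBiT-tagged KRAS G12V cells treated 24 h with compound in a 3-fold, 10-point series (0.3 mM DMSO stock); lytic HiBiT reagent with LgBiT added after 15 min room-temperature equilibration. Degradation calculated against 0.1% DMSO high control.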

KRAS = molecular target: T3, KRAS (Homo sapiens, UniProt P01116); test: KRASamp MSD assay; settings: KE39 (KRAS amplified) cells, treated with test compounds for 24 hr, MSD readout of KRAS degradation
T3 construct: endogenous in cells; host or cells: KE39 (KRAS amplified) cells
T3 sequence (P01116 1-188 isoform P01116-2): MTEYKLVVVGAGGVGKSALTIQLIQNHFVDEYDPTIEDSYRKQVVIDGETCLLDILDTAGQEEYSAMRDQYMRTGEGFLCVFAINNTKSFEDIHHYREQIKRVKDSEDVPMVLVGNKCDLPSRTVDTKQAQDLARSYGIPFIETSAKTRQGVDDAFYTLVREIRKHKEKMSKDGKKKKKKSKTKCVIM
Outline: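 KRAS-amplified KE39 cells treated with compound for 24 hr, then lysed in RIPA buffer with protease/phosphatase inhibitors. KRAS protein measured by MSD sandwich immunoassay against a recombinant WT KRAS standard curve; DC50 derived from curve fitting of degradation.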

[1] = numeric bounds given in place of class symbols

| Compound | DC50 (KRAS G12D; class symbols) | DC50 (KRAS G12V) | DC50 (KRAS) | DC50 (KRAS G12D; [1]) |
| --- | --- | --- | --- | --- |
| CCc1c(F)ccc2cc(O)cc(-c3ncc4c(N5CCC[C@@](C)(O)C5)nc(OC[C@]56CCCN5[C@H](COC(=O)N5CCC(c7ccc8c(c7)n(C)c(=O)n8C7CCC(=O)NC7=O)CC5)CC6)nc4c3F)c12 (stereo partly drawn) [Compound 307, ((3S,7aR)-7a-(((7-(8-ethyl-7-fluoro-3-hydroxynaphthalen-1-yl)-8-fluoro-4-((R)-3-hydroxy-3-methylpiperidin-1-yl)pyrido[4,3-d]pyrimidin-2-yl)oxy)methyl)hexahydro-1H-pyrrolizin-3-yl)methyl 4-(1-(2,6-dioxopiperidin-3-yl)-3-methyl-2-oxo-2,3-dihydro-1H-benzo[d]imidazol-5-yl)piperidine-1-carboxylate] | < 100 nM | > 100 nM | 1 to 10 nM |  |
| CCc1c(F)ccc2cc(O)cc(-c3ncc4c(N5CCC[C@@](C)(O)C5)nc(OC[C@]56CCCN5[C@H](COC(=O)NC5CCN(c7ccc8c(c7)n(C)c(=O)n8C7CCC(=O)NC7=O)CC5)CC6)nc4c3F)c12 (stereo partly drawn) [Compound 308, ((3S,7aR)-7a-(((7-(8-ethyl-7-fluoro-3-hydroxynaphthalen-1-yl)-8-fluoro-4-((R)-3-hydroxy-3-methylpiperidin-1-yl)pyrido[4,3-d]pyrimidin-2-yl)oxy)methyl)hexahydro-1H-pyrrolizin-3-yl)methyl (1-(1-(2,6-dioxopiperidin-3-yl)-3-methyl-2-oxo-2,3-dihydro-1H-benzo[d]imidazol-5-yl)piperidin-4-yl)carbamate] |  | 10 to 100 nM | < 1 nM | > 100 nM |
| CCc1c(F)ccc2cc(O)cc(-c3ncc4c(N5CCC[C@@](C)(O)C5)nc(OC[C@]56CCCN5[C@H](COC(=O)NC5CCCN(c7ccc8c(c7)n(C)c(=O)n8C7CCC(=O)NC7=O)C5)CC6)nc4c3F)c12 (stereo partly drawn) [Compound 309, ((3S,7aR)-7a-(((7-(8-ethyl-7-fluoro-3-hydroxynaphthalen-1-yl)-8-fluoro-4-((R)-3-hydroxy-3-methylpiperidin-1-yl)pyrido[4,3-d]pyrimidin-2-yl)oxy)methyl)hexahydro-1H-pyrrolizin-3-yl)methyl (1-(1-(2,6-dioxopiperidin-3-yl)-3-methyl-2-oxo-2,3-dihydro-1H-benzo[d]imidazol-5-yl)piperidin-3-yl)carbamate] |  | 10 to 100 nM | 1 to 10 nM | > 100 nM |
| CCc1c(F)ccc2cc(O)cc(-c3ncc4c(N5CCC[C@@](C)(O)C5)nc(OC[C@]56CCCN5[C@H](COC(=O)NC5CCN(c7cccc8c7n(C)c(=O)n8C7CCC(=O)NC7=O)CC5)CC6)nc4c3F)c12 (stereo partly drawn) [Compound 311, ((3S,7aR)-7a-(((7-(8-ethyl-7-fluoro-3-hydroxynaphthalen-1-yl)-8-fluoro-4-((R)-3-hydroxy-3-methylpiperidin-1-yl)pyrido[4,3-d]pyrimidin-2-yl)oxy)methyl)hexahydro-1H-pyrrolizin-3-yl)methyl (1-(1-(2,6-dioxopiperidin-3-yl)-3-methyl-2-oxo-2,3-dihydro-1H-benzo[d]imidazol-4-yl)piperidin-4-yl)carbamate] | < 100 nM | > 100 nM | ≥ 10 nM |  |
| CCc1c(F)ccc2cc(O)cc(-c3ncc4c(N5CCC[C@@](C)(O)C5)nc(OC[C@]56CCCN5[C@H](COC(=O)NC5CCCN(c7cccc8c7n(C)c(=O)n8C7CCC(=O)NC7=O)C5)CC6)nc4c3F)c12 (stereo partly drawn) [Compound 312, ((3S,7aR)-7a-(((7-(8-ethyl-7-fluoro-3-hydroxynaphthalen-1-yl)-8-fluoro-4-((R)-3-hydroxy-3-methylpiperidin-1-yl)pyrido[4,3-d]pyrimidin-2-yl)oxy)methyl)hexahydro-1H-pyrrolizin-3-yl)methyl (1-(1-(2,6-dioxopiperidin-3-yl)-3-methyl-2-oxo-2,3-dihydro-1H-benzo[d]imidazol-4-yl)piperidin-3-yl)carbamate] |  | 10 to 100 nM | ≥ 10 nM | > 100 nM |

Now from value to compound:

| DC50 (KRAS G12D; class symbols) | DC50 (KRAS G12V) | DC50 (KRAS) | DC50 (KRAS G12D; [1]) | Compound |
| --- | --- | --- | --- | --- |
| < 100 nM | < 10 nM | 1 to 10 nM |  | CCc1c(F)ccc2cc(O)cc(-c3ncc4c(N5CCC[C@@](C)(O)C5)nc(OC[C@]56CCCN5[C@H](COC(=O)N5CCC(CCCCOc7ccc8c(c7)n(C)c(=O)n8C7CCC(=O)NC7=O)CC5)CC6)nc4c3F)c12 (stereo partly drawn) [Compound 303, ((3S,7aR)-7a-(((7-(8-ethyl-7-fluoro-3-hydroxynaphthalen-1-yl)-8-fluoro-4-((R)-3-hydroxy-3-methylpiperidin-1-yl)pyrido[4,3-d]pyrimidin-2-yl)oxy)methyl)hexahydro-1H-pyrrolizin-3-yl)methyl 4-(4-((1-(2,6-dioxopiperidin-3-yl)-3-methyl-2-oxo-2,3-dihydro-1H-benzo[d]imidazol-5-yl)oxy)butyl)piperidine-1-carboxylate] |
|  | > 100 nM | 1 to 10 nM | > 100 nM | CCc1c(F)ccc2cc(O)cc(-c3ncc4c(N5CCC[C@@](C)(O)C5)nc(OC[C@]56CCCN5[C@H](COC(=O)N5CCC(c7cccc8c7n(C)c(=O)n8C7CCC(=O)NC7=O)CC5)CC6)nc4c3F)c12 (stereo partly drawn) [Compound 310, ((3S,7aR)-7a-(((7-(8-ethyl-7-fluoro-3-hydroxynaphthalen-1-yl)-8-fluoro-4-((R)-3-hydroxy-3-methylpiperidin-1-yl)pyrido[4,3-d]pyrimidin-2-yl)oxy)methyl)hexahydro-1H-pyrrolizin-3-yl)methyl 4-(1-(2,6-dioxopiperidin-3-yl)-3-methyl-2-oxo-2,3-dihydro-1H-benzo[d]imidazol-4-yl)piperidine-1-carboxylate] |
|  | > 100 nM | ≥ 10 nM | > 100 nM | CCc1c(F)ccc2cc(O)cc(-c3ncc4c(N5CCC[C@@](C)(O)C5)nc(OC[C@@]56CCCN5[C@@H](COC(=O)N5CCC(COc7ccc8c(c7)n(C)c(=O)n8C7CCC(=O)NC7=O)CC5)CC6)nc4c3F)c12 (stereo partly drawn) [Compound 314, ((3R,7aS)-7a-(((7-(8-ethyl-7-fluoro-3-hydroxynaphthalen-1-yl)-8-fluoro-4-((R)-3-hydroxy-3-methylpiperidin-1-yl)pyrido[4,3-d]pyrimidin-2-yl)oxy)methyl)hexahydro-1H-pyrrolizin-3-yl)methyl 4-(((1-(2,6-dioxopiperidin-3-yl)-3-methyl-2-oxo-2,3-dihydro-1H-benzo[d]imidazol-5-yl)oxy)methyl)piperidine-1-carboxylate] |
|  | > 100 nM | ≥ 10 nM | > 100 nM | CCc1c(F)ccc2cc(O)cc(-c3ncc4c(N5CCC[C@@](C)(O)C5)nc(OC[C@@]56CCCN5[C@@H](COC(=O)N5CCC(CCOc7ccc8c(c7)n(C)c(=O)n8C7CCC(=O)NC7=O)CC5)CC6)nc4c3F)c12 (stereo partly drawn) [Compound 315, ((3R,7aS)-7a-(((7-(8-ethyl-7-fluoro-3-hydroxynaphthalen-1-yl)-8-fluoro-4-((R)-3-hydroxy-3-methylpiperidin-1-yl)pyrido[4,3-d]pyrimidin-2-yl)oxy)methyl)hexahydro-1H-pyrrolizin-3-yl)methyl 4-(2-((1-(2,6-dioxopiperidin-3-yl)-3-methyl-2-oxo-2,3-dihydro-1H-benzo[d]imidazol-5-yl)oxy)ethyl)piperidine-1-carboxylate] |
|  | > 100 nM | ≥ 10 nM | > 100 nM | CCc1c(F)ccc2cc(O)cc(-c3ncc4c(N5CCC[C@@](C)(O)C5)nc(OC[C@@]56CCCN5[C@@H](COC(=O)N5CCC(CCCOc7ccc8c(c7)n(C)c(=O)n8C7CCC(=O)NC7=O)CC5)CC6)nc4c3F)c12 (stereo partly drawn) [Compound 316, ((3R,7aS)-7a-(((7-(8-ethyl-7-fluoro-3-hydroxynaphthalen-1-yl)-8-fluoro-4-((R)-3-hydroxy-3-methylpiperidin-1-yl)pyrido[4,3-d]pyrimidin-2-yl)oxy)methyl)hexahydro-1H-pyrrolizin-3-yl)methyl 4-(3-((1-(2,6-dioxopiperidin-3-yl)-3-methyl-2-oxo-2,3-dihydro-1H-benzo[d]imidazol-5-yl)oxy)propyl)piperidine-1-carboxylate] |
| < 100 nM | > 100 nM | ≥ 10 nM |  | CCc1c(F)ccc2cc(O)cc(-c3ncc4c(N5CCC[C@@](C)(O)C5)nc(OC[C@@]56CCCN5[C@@H](COC(=O)N5CCC(CCCCOc7ccc8c(c7)n(C)c(=O)n8C7CCC(=O)NC7=O)CC5)CC6)nc4c3F)c12 (stereo partly drawn) [Compound 317, ((3R,7aS)-7a-(((7-(8-ethyl-7-fluoro-3-hydroxynaphthalen-1-yl)-8-fluoro-4-((R)-3-hydroxy-3-methylpiperidin-1-yl)pyrido[4,3-d]pyrimidin-2-yl)oxy)methyl)hexahydro-1H-pyrrolizin-3-yl)methyl 4-(4-((1-(2,6-dioxopiperidin-3-yl)-3-methyl-2-oxo-2,3-dihydro-1H-benzo[d]imidazol-5-yl)oxy)butyl)piperidine-1-carboxylate] |
